# “And” between values parts separate entries of the source, which are not always exact repeats. Identical values can stand only once.
# Experiments:
# [1] = test system: serum eosinophil count; test: Phase 1 Part 3 serum (whole blood) differential eosinophil count; format: in vivo, human; conditions: 4 mg BID
# Experimental: Whole blood hematology samples were collected prior to dosing in all patients at Day 1 (baseline) and on Day 10. Parameters including whole blood absolute and percent differential eosinophil count were determined and the resultant data was used to determine change from baseline, mean change from baseline, and mean placebo-corrected change from baseline (Compound I vs placebo).
# [2] = Margin of safety study versus 13-wk rat NOAEL; format: in vivo
# Excerpt: Results from the margin of safety study of lactose/MgSt-based formulations of Compound I are shown below in Table 17.
# [3] = Phase 1 Part 2 plasma pharmacokinetics (mild asthma); format: in vivo, human; conditions: Day 10
# Excerpt: Day 10 pharmacokinetic parameters for Parts 2 and 3 of Phase I are summarized below in Table 28. Part 2 involved the administration of 4 different dose regimens, to subjects with mild asthma naïve to ICS therapy, over a 10-day period. Each separate cohort comprised 6 subjects receiving active treatment with 2 receiving matching placebo. Blood samples were collected to enable the measurement of Compound I concentrations in plasma. The resultant data was used to determine the PK parameters at Day 10 representing the Day on which the final dose was received.
# [4] = Day 10, Mean of active subjects (n = 6)
# [5] = Day 10, individual active subjects 13026, 13027, 13038, 13073, 13095, 13097 (c1-c6)
# [6] = 4.0 mg BID vs 13-week rat study
smiles,measurement,setting,value
"Cn1c(=O)n([C@H]2CCCN(C(=O)CC#N)C2)c2nc(-c3cnn4ccccc34)ccc21 [Compound I, (S)-3-(3-(1-methyl-2-oxo-5-(pyrazolo[1,5-a]pyridine-3-yl)-1H-imidazo[4,5-b]pyridine-3(2H)-yl)piperidin-1-yl)-3-oxopropanenitrile]",Active subjects with improvements (decreases) from baseline in whole blood eosinophil count,[1]; Day 10 (5/6),83%
same,"Serum absolute differential eosinophil count, % Change from screening",[1]; [4],−29%
same,"Serum absolute differential eosinophil count, Change from Day 1 pre-dose",[1]; [4],−0.14 cells 10^9/L
same,"Serum absolute differential eosinophil count, Mean placebo-corrected change","[1]; Day 10, active (n = 6) vs placebo (n = 2)",−0.11 cells 10^9/L
same,"Serum absolute differential eosinophil count, % Change from screening",[1]; [5],−45% and +54% and −43% and −4% and −32% and −74%
same,"Serum absolute differential eosinophil count, Change from Day 1 pre-dose",[1]; [5],−0.30 cells 10^9/L and 0.13 cells 10^9/L and −0.13 cells 10^9/L and −0.03 cells 10^9/L and −0.14 cells 10^9/L and −0.34 cells 10^9/L
same,"Serum absolute differential eosinophil count, Day 10 level",[1]; Mean of active subjects (n = 6),0.34 cells 10^9/L
same,"Serum absolute differential eosinophil count, Day 10 level","[1]; individual active subjects 13026, 13027, 13038, 13073, 13095, 13097 (c1-c6)",0.36 cells 10^9/L and 0.37 cells 10^9/L and 0.17 cells 10^9/L and 0.74 cells 10^9/L and 0.30 cells 10^9/L and 0.12 cells 10^9/L
same,"MoS versus inhalation toxicology study NOAELs, Lung exposure (mg/g lung)",[2]; [6],3925
same,"MoS versus inhalation toxicology study NOAELs, Plasma (group mean AUC0-24)",[2]; [6],85.6
same,Group mean AUC0-24 MoS (Phase 1 clinical study versus inhalation tox study NOAELs),[2]; 4.0 mg BID vs 13-wk rat NOAEL,5.6
same,Lung dose of Compound I (mg/g) MoS,"[2]; 4.0 mg BID vs 13-wk rat NOAEL, adjusted for respirability assuming 10%, 25% and 100% lung deposition in rat, NHP and human",25
same,AUC0-12 hours Max,[3]; 0.6 mg QD,"23,507 pg · h/ml"
same,AUC0-12 hours Min,[3]; 0.6 mg QD,"7,596 pg · h/ml"
same,AUC0-24 hours Max,[3]; 0.6 mg QD,"36,466 pg · h/ml"
same,AUC0-24 hours Min,[3]; 0.6 mg QD,"8,579 pg · h/ml"
same,AUC0-last non-zero Max,[3]; 0.6 mg QD,"47,928 pg · h/ml"
same,AUC0-last non-zero Min,[3]; 0.6 mg QD,"8,579 pg · h/ml"
same,AUC0-∞ Max,[3]; 0.6 mg QD,"52,842 pg · h/ml"
same,AUC0-∞ Min,[3]; 0.6 mg QD,"8,783 pg · h/ml"
same,AUCover dosing interval Max,[3]; 0.6 mg QD,"36,466 pg · h/ml"
same,AUCover dosing interval Min,[3]; 0.6 mg QD,"8,579 pg · h/ml"
same,Cmax Max,[3]; 0.6 mg QD,"2,750 pg/ml"
same,Cmax Min,[3]; 0.6 mg QD,"1,020 pg/ml"
same,Ctrough Geometric mean,[3]; 0.6 mg QD,234 pg/mL
same,Ctrough Max,[3]; 0.6 mg QD,913 pg/mL
same,Ctrough Mean,[3]; 0.6 mg QD,362 pg/mL
same,Ctrough Min,[3]; 0.6 mg QD,34 pg/mL
same,AUC0-12 hours Max,[3]; 2 mg QD,"88,203 pg · h/ml"
same,AUC0-12 hours Min,[3]; 2 mg QD,"30,807 pg · h/ml"
same,AUC0-24 hours Max,[3]; 2 mg QD,"125,837 pg · h/ml"
same,AUC0-24 hours Min,[3]; 2 mg QD,"42,693 pg · h/ml"
same,AUC0-last non-zero Max,[3]; 2 mg QD,"143,585 pg · h/ml"
same,AUC0-last non-zero Min,[3]; 2 mg QD,"48,931 pg · h/ml"
same,AUC0-∞ Max,[3]; 2 mg QD,"145,552 pg · h/ml"
same,AUC0-∞ Min,[3]; 2 mg QD,"50,025 pg · h/ml"
same,AUCover dosing interval Max,[3]; 2 mg QD,"125,837 pg · h/ml"
same,AUCover dosing interval Min,[3]; 2 mg QD,"42,693 pg · h/ml"
same,Cmax Max,[3]; 2 mg QD,"9,630 pg/ml"
same,Cmax Min,[3]; 2 mg QD,"4,160 pg/ml"
same,Ctrough Geometric mean,[3]; 2 mg QD,929 pg/mL
same,Ctrough Max,[3]; 2 mg QD,"1,370 pg/ml"
same,Ctrough Mean,[3]; 2 mg QD,970 pg/mL
same,Ctrough Min,[3]; 2 mg QD,536 pg/mL
same,AUC0-12 hours Max,[3]; 4 mg BID,"373,995 pg · h/ml"
same,AUC0-12 hours Min,[3]; 4 mg BID,"39,111 pg · h/ml"
same,AUC0-24 hours Max,[3]; 4 mg BID,"473,634 pg · h/ml"
same,AUC0-24 hours Min,[3]; 4 mg BID,"43,350 pg · h/ml"
same,AUC0-last non-zero Max,[3]; 4 mg BID,"586,513 pg · h/ml"
same,AUC0-last non-zero Min,[3]; 4 mg BID,"43,356 pg · h/ml"
same,AUC0-∞ Max,[3]; 4 mg BID,"587,424 pg · h/ml"
same,AUC0-∞ Min,[3]; 4 mg BID,"44,654 pg · h/ml"
same,AUCover dosing interval Max,[3]; 4 mg BID,"373,995 pg · h/ml"
same,AUCover dosing interval Min,[3]; 4 mg BID,"39,111 pg · h/ml"
same,Cmax Max,[3]; 4 mg BID,"47,800 pg/ml"
same,Cmax Min,[3]; 4 mg BID,"7,750 pg/ml"
same,Ctrough Geometric mean,[3]; 4 mg BID,"6,983 pg/ml"
same,Ctrough Max,[3]; 4 mg BID,"15,600 pg/ml"
same,Ctrough Mean,[3]; 4 mg BID,"10,001 pg/ml"
same,Ctrough Min,[3]; 4 mg BID,563 pg/mL
same,AUC0-12 hours Max,[3]; 8 mg BID,"830,085 pg · h/ml"
same,AUC0-12 hours Min,[3]; 8 mg BID,"260,305 pg · h/ml"
